# According to patent publication US12195706B2, “Formation of arrays of planar intestinal crypts possessing a stem/proliferative cell compartment and differentiated cell zone” (THE UNIVERSITY OF NORTH CAROLINA AT CHAPEL HILL, priority 2018, dated 2025):
# Assays:
# [1] = test system: mouse intestinal epithelial cells; experiment: Effect of short chain fatty acids on proliferation and differentiation on planar crypt arrays; format: cell-based; conditions: day 3-4 (DM/EM); for ALP activity relative to the control / normalized area of EdU+ cells compared to control without short chain fatty acid: 24 mM acetate, 6 mM propionate or 1 mM butyrate in DM luminal medium; for ALP activity relative to the control: ALP+ area normalized to Hoechst 33342 area; for normalized area of EdU+ cells compared to control without short chain fatty acid: EdU+ area normalized to Hoechst 33342 area
# Experimental: EM was replaced with fresh EM every 2 days. The cells were sub-cultured every 3-5 days by degrading collagen with collagenase and dissociating the cells with 0.5 mM EDTA into clumps of cells. […] When placing cells onto the surface of the microdevice, the cell suspension was diluted 1 to 2 in EM and overlaid onto the microdevice surface. The cells were cultured for 2 days with EM placed into the luminal and basal reservoirs of the Transwell cassette. On day 2, the luminal and basal media were changed as described in Table 3, below, and the cells incubated for a day. On day 3, the luminal and basal media were replaced with fresh media (identical to that from day 2 replacement) and the cells incubated for another day. In some experiments, the medium in the luminal compartment was replaced differentiation medium (DM, see Table 2) which is similar to EM but lacking in key growth factors required to support intestinal stem cells.
# Cells in the S phase of the cell cycle were incubated with a pulse of 5-ethynyl-2′-deoxyuridine (EdU) pulse following the manufacturers' protocols (Click-iT EdU Alexa Fluor 647 Imaging kit, C10340, Thermo Fisher Scientific, Waltham, Massachusetts, United States of America). EdU is a nucleotide analog incorporated into DNA as it is replicated in S phase. In brief, EdU (10 μM) was added to the luminal and basal media and the cells were incubated for 3 h at 37° C. The cells then were washed with PBS and fixed with 4% paraformaldehyde in PBS for 15 min and permeabilized with 0.5% Triton-X for 20 min at 25° C. EdU incorporated into cellular DNA was visualized by reaction with Alexa 647 via click chemistry following the manufacturer's protocol (Click-iT EdU Alexa Fluor 647 Imaging kit, C10340, Thermo Fisher Scientific, Waltham, Massachusetts, United States of America).
# Cell monolayers were assayed for alkaline phosphatase (ALP) activity on day 4 of culture by incubation with ALP substrate mixture (Vector Red AP substrate kit, SK-5100, Vector Laboratories Inc., Burlingame, California, United States of America) in Tris buffer (pH 8.4) for 30 min at 37° C. Then cells were washed with PBS, fixed and permeabilized as described above. To label cell DNA, Hoechst 33342 (2 μg/mL, B2261, Sigma Aldrich, St. Louis, Missouri, United States of America) was incubated with cells (1 h, 25° C.).
# The […] ® insert (Corning, Inc., Corning, New York, United States of America) with cell layer from the microdevice was placed into a 12-well plate under PBS and imaged using a FLUOVIEW® FV3000® confocal microscope (Olympus Corporation, Tokyo, Japan) confocal microscope (10×, objective, numerical aperture of 0.4). Alexa 647, Vector-Red-ALP, and Hoechst 33342 were excited with a 640, 561, and 405 nm laser, respectively and the fluorescence emission was collected at 650-750 nm, 570-590 nm, and 430-470 nm, respectively. The images were analyzed with the Fiji software package. […] For all experiments, the numbers of sample sizes were estimated using a statistical power analysis based on the data from Wang et al. (Cellular and Molecular Gastroenterology and Hepatology, 2017, 4, 165-182) measuring EdU+ and ALP activities under varying conditions (α=0.05, β=0.85) using G*Power. […] A one-way ANOVA analysis was used for all statistical analyses of data obtained from the fluorescence microscopy images.
# [2] = test system: intestinal tumor cell lines; conditions: cited from earlier work
Structure (SMILES),ALP activity relative to the control [1],normalized area of EdU+ cells compared to control without short chain fatty acid [1],"decrease of the number of Hoechst 33342+ cells per crypt ([1]; 1 mM butyrate in DM luminal medium, vs control crypts, p<0.001)",proliferation in intestinal tumor cell lines [2]
CC(=O)O [acetate],significantly decreased,significantly increased,–,–
CCCC(=O)O [butyrate],–,–,about 17%,–
CCC(=O)O [propionate],significantly increased,significantly decreased,–,suppress proliferation
